According to ChEMBL document CHEMBL3045726, “Fungicidal Activity of Pyrazolylpyrimidines” (1990):
Converted amounts (≈) assume the structure as drawn.

What was measured:
Type in all cases: functional
Pyricularia oryzae [1] = assay: Fungicidal activity against Magnaporthe oryzae in rice seedlings assessed as control of rice blast at 500 ppm by curative foliar treatment
Nakataea oryzae = assay: Fungicidal activity against Magnaporthe salvinii by agar dilution method
Podosphaera fuliginea [2] = assay: Fungicidal activity against Podosphaera fuliginea in cucumber assessed as control of cucumber powdery mildew at 62.5 ppm measured after 7 days of inoculation
Podosphaera fuliginea [3] = assay: Fungicidal activity against Podosphaera fuliginea in cucumber assessed as control of cucumber powdery mildew at 125 ppm measured after 7 days of inoculation
Podosphaera fuliginea [4] = assay: Fungicidal activity against Podosphaera fuliginea in cucumber assessed as control of cucumber powdery mildew at 62.5 ppm measured after 10 days of inoculation
Podosphaera fuliginea [5] = assay: Fungicidal activity against Podosphaera fuliginea in cucumber assessed as control of cucumber powdery mildew at 125 ppm measured after 10 days of inoculation
Pyricularia oryzae [6] = assay: Fungicidal activity against Magnaporthe oryzae in rice seedlings assessed as control of rice blast at 500 ppm by preventive foliar treatment
Pyricularia oryzae [7] = assay: Fungicidal activity against Magnaporthe oryzae by agar dilution method
Pyricularia oryzae [8] = assay: Fungicidal activity against Magnaporthe oryzae in rice seedlings assessed as control of rice blast at 250 ppm by curative foliar treatment

Row | SMILES | Activity (Pyricularia oryzae [1]) [%] | MIC (Nakataea oryzae) [µg/mL] | Activity (Podosphaera fuliginea [2]) [%] | Activity (Podosphaera fuliginea [3]) [%] | Activity (Podosphaera fuliginea [4]) [%] | Activity (Podosphaera fuliginea [5]) [%] | Activity (Pyricularia oryzae [6]) [%] | MIC (Pyricularia oryzae [7]) [µg/mL] | Activity (Pyricularia oryzae [8]) [%]
1 | CCCCc1c(C)nc(-n2nc(C)cc2C)nc1O | 99 | 0.1 (≈ 0.384 µM) | 100 | 100 | 100 | 100 | 48 | 6.25 (≈ 24 µM) | –
2 | CCCCCc1c(C)nc(-n2nc(C)cc2C)nc1O | 94 | 0.2 (≈ 0.729 µM) | 100 | 100 | 100 | 100 | 81 | 6.25 (≈ 22.8 µM) | –
3 | Cc1cc(C)n(-c2nc(O)c3c(n2)CCCC3)n1 | – | – | – | – | – | – | 0 | 3.12 (≈ 12.8 µM) | 0
4 | Cc1cc(C)n(-c2nc(C)c(CC(C)C)c(O)n2)n1 | 98 | 0.78 (≈ 3 µM) | 100 | 100 | 99.4 | 100 | 93 | 6.25 (≈ 24 µM) | –
5 | Cc1cc(C)n(-c2nc(C)c(C)c(O)n2)n1 | – | 100 (≈ 458 µM) | – | – | – | – | – | 12.5 (≈ 57.3 µM) | 0
6 | CCc1cc(C)n(-c2ncccn2)n1 | 93 | > 100 | – | – | – | – | 74 | > 100 | –
7 | Cc1cc(C)nc(-n2[nH]c(C)cc2=O)n1 | 0 | > 100 | – | – | – | – | 31 | > 100 | –
8 | CCc1cc(C)n(-c2nc(C)cc(C)n2)n1 | 100 | 50 (≈ 231 µM) | – | – | – | – | 31 | 50 (≈ 231 µM) | –
9 | Cc1cc(C)nc(-n2nc(C)c(CC(C)C)c2C)n1 | 100 | 6.25 (≈ 24.2 µM) | – | – | – | – | 90 | 6.25 (≈ 24.2 µM) | –
10 | Cc1cc(C)n(C2=NS(=O)(=O)c3ccccc32)n1 | 0 | > 100 | – | – | – | – | 31 | > 100 | –
11 | Cc1cc(C)nc(-n2nc(C)cc2C(F)(F)F)n1 | 0 | > 100 | – | – | – | – | 53 | > 100 | –
12 | Cc1cc(C)n(-c2nc(C)c3ccccc3n2)n1 | 98 | 6.25 (≈ 26.2 µM) | – | – | – | – | 71 | 25 (≈ 105 µM) | –
13 | Cc1cc(C)nc(-n2nc(C)cc2C)n1 | 100 | 100 (≈ 494 µM) | – | – | – | – | 99 | > 100 | –
14 | Cc1cc(C)n(-c2nc(C)c(C)c(C)n2)n1 | 78 | 100 (≈ 462 µM) | – | – | – | – | 65 | 50 (≈ 231 µM) | –
15 | Cc1cc(C)n(-c2ncccn2)n1 | 73 | > 100 | – | – | – | – | 78 | > 100 | –
16 | CCCCc1c(C)nc(N(C)C)nc1O [DIMETHIRIMOL] | – | – | 100 | 100 | 100 | 100 | – | – | –
17 | COc1cc(C)nn1-c1nc(C)cc(C)n1 | 40 | > 100 | – | – | – | – | 40 | > 100 | –
18 | Cc1cc(C)n(-c2ncncn2)n1 | 50 | > 100 | – | – | – | – | 59 | > 100 | –
19 | Cc1cc(C)nc(-n2cccn2)n1 | 40 | > 100 | – | – | – | – | 41 | > 100 | –
20 | Cc1cc(C)nc(-n2cc(C)nc2C)n1 | 0 | > 100 | – | – | – | – | 59 | > 100 | –
21 | Cc1cc(C)nc(-n2nc(C(C)C)cc2C(C)C)n1 | 100 | 6.25 (≈ 24.2 µM) | – | – | – | – | 31 | 6.25 (≈ 24.2 µM) | –
22 | Cc1ccnc(-n2nc(C)c(C)c2C)n1 | 100 | 50 (≈ 247 µM) | – | – | – | – | 63 | 50 (≈ 247 µM) | –

Row | SMILES | Activity (Pyricularia oryzae [1]) [%] | MIC (Nakataea oryzae) [µg/mL] | Activity (Podosphaera fuliginea [2]) [%] | Activity (Podosphaera fuliginea [3]) [%] | Activity (Podosphaera fuliginea [4]) [%] | Activity (Podosphaera fuliginea [5]) [%] | Activity (Pyricularia oryzae [6]) [%] | MIC (Pyricularia oryzae [7]) [µg/mL] | Activity (Pyricularia oryzae [8]) [%]
23 | Cc1cc(C)nc(-n2ccc(C)n2)n1 | 69 | > 100 | – | – | – | – | 69 | > 100 | –
24 | Cc1cc(C)n(-c2nc(O)c3c(n2)CCC3)n1 | – | 6.25 (≈ 27.1 µM) | – | – | – | – | 13 | 6.25 (≈ 27.1 µM) | 15
25 | CCc1cc(CC)n(-c2ncccn2)n1 | 100 | > 100 | – | – | – | – | 90 | 100 (≈ 494 µM) | –
26 | Cc1cc(C)nc(-n2ccnc2)n1 | 0 | > 100 | – | – | – | – | 51 | > 100 | –
27 | Cc1cc(C)nc(-n2cncn2)n1 | 0 | > 100 | – | – | – | – | 31 | > 100 | –
28 | CCc1cc(CC)n(-c2nccc(C)n2)n1 | 100 | 25 (≈ 116 µM) | – | – | – | – | 59 | 25 (≈ 116 µM) | –
29 | Cc1cc(C)n(-c2ccc(Cl)nn2)n1 | 31 | > 100 | – | – | – | – | 31 | > 100 | –
30 | COc1cc(C)nc(-n2nc(C)cc2C)n1 | 96 | 100 (≈ 458 µM) | – | – | – | – | 81 | 50 (≈ 229 µM) | –
31 | Cc1ccnc(-n2nc(C)cc2C)n1 | 96 | > 100 | – | – | – | – | 78 | > 100 | –
32 | CCCCc1c(C)nc(NCC)[nH]c1=O [ETHIRIMOL] | – | – | 100 | 100 | 100 | 100 | – | – | –
33 | Cc1cc(C)n(-c2ccc3ccccc3n2)n1 | 60 | 25 (≈ 112 µM) | – | – | – | – | 31 | 100 (≈ 448 µM) | –
34 | CCCCCCc1c(C)nc(-n2nc(C)cc2C)nc1O | 89 | 6.25 (≈ 21.7 µM) | 99.4 | 100 | 98.4 | 100 | 81 | 6.25 (≈ 21.7 µM) | –
35 | CCc1cc(C)n(-c2nccc(C)n2)n1 | 98 | 50 (≈ 247 µM) | – | – | – | – | 84 | 25 (≈ 124 µM) | –
36 | Cc1cc(C)n(-c2nc(Cl)nc(Cl)n2)n1 | 100 | > 100 | – | – | – | – | 100 | > 100 | –
37 | Cc1nc(-n2nc(C)c(C)c2C)nc(C)c1C | 99 | 50 (≈ 217 µM) | – | – | – | – | 81 | 50 (≈ 217 µM) | –
38 | Cc1cc(C)n(-c2nc(C)c(Cl)c(C)n2)n1 | 100 | 25 (≈ 106 µM) | – | – | – | – | 94 | 50 (≈ 211 µM) | –
39 | Cc1cc(C)nc(-n2ncc3ccccc32)n1 | 96 | 25 (≈ 111 µM) | – | – | – | – | 31 | 50 (≈ 223 µM) | –
40 | Cc1cc(C)nc(-n2nc(C)nc2C)n1 | 0 | > 100 | – | – | – | – | 81 | > 100 | –
41 | Cc1cc(C)nc(-n2nc(C)c(Br)c2C)n1 | 96 | 50 (≈ 178 µM) | – | – | – | – | 65 | 50 (≈ 178 µM) | –
42 | Cc1cc(O)nc(-n2nc(C)cc2C)n1 | – | – | – | – | – | – | – | 12.5 (≈ 61.2 µM) | 69
43 | Cc1cc(C)nc(-n2ccnc2C)n1 | 40 | > 100 | – | – | – | – | 59 | > 100 | –
